Assay results published in paper PMC9230533, “Discovery of Triple Inhibitors of Both SARS-CoV-2 Proteases and Human Cathepsin L” (Pharmaceuticals, 2022).
Where two headings read alike, the source gives them in different places.

Key:
SARS-CoV PLpro = conditions: cited from earlier work
[1] = cited from earlier work
SARS-CoV-2 = SARS-CoV-2 infectivity cells-based assay (Huh7.5.1, immunofluorescence), antiviral efficacy; assay type: cell-based; conditions: for EC50: Severe acute respiratory syndrome coronavirus 2, Huh-7.5.1, 48 h, read-out: SARS-CoV-2 Infectivity Cells-Based Assay EC50; for CC50/EC50 Ratio (therapeutic ratio): CC50 over EC50
human cathepsin L = molecular target: T1, human cathepsin L (Homo sapiens, UniProt P07711); test: Human cathepsin L fluorogenic enzymatic inhibition assay; assay type: biochemical; conditions: for inhibitory effect on cathepsin L (in words): dose-response, Figure 4
T1 construct: purchased R & D Systems
T1 sequence (P07711 114-333): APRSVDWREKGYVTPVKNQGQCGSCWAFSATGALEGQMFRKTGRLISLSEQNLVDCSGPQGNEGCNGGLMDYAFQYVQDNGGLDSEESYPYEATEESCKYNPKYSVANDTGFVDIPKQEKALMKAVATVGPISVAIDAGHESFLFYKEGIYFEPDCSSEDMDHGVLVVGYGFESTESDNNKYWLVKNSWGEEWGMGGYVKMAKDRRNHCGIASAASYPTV

[2] = Cell viability / cytotoxicity in the SARS-CoV-2 Huh7.5.1 infectivity assay; conditions: human, Huh7.5.1 cells infected with SARS-CoV-2 (MOI 1.0), tested 60 to 0.08 µM, read-out: SARS-CoV-2 Infectivity Cells-Based Assay CC50 (converted)
SARS-CoV-2 PLpro = SARS-CoV-2 PLpro (Severe acute respiratory syndrome coronavirus 2, UniProt P0DTD1); test: SARS-CoV-2 PLpro fluorogenic enzymatic inhibition assay; assay type: biochemical
SARS-CoV-2 Mpro = SARS-CoV-2 Mpro (Severe acute respiratory syndrome coronavirus 2, UniProt P0DTD1); test: SARS-CoV-2 Mpro fluorometric (FRET peptide) enzymatic inhibition assay; assay type: biochemical; conditions: for fold more potent than disulfiram against Mpro: ratio of IC50 values vs disulfiram
[3] = Oral median lethal dose in mice (literature); assay type: in vivo; conditions: mouse, ratio of cited LD50 values
[4] = 24.46 nM PLpro, 50 µM Z-RLRGG-AMC, no DTT, 37 °C, read-out: PLpro IC50
[5] = 50 nM Mpro, 10 µM MCA-[…]-K(DNP)-K-NH2, no DTT, 37 °C, read-out: Mpro IC50
[6] = 1 nM cathepsin L, Z-Phe-Arg-AMC substrate, read-out: Cathepsin L IC50

| Compound | IC50 (SARS-CoV PLpro) [µM] | LD50 Mouse oral [1] | EC50 (SARS-CoV-2) [µM] | IC50 (human cathepsin L) [µM] | CC50 at 48 h [2] [µM] | IC50 (SARS-CoV-2 PLpro; [4]) [µM] | IC50 (SARS-CoV-2 Mpro; [5]) [µM] | CC50/EC50 Ratio (therapeutic ratio) (SARS-CoV-2; Huh7.5.1 cells) | IC50 (human cathepsin L; [6]) [µM] | IC50 (SARS-CoV-2 PLpro) [µM] | IC50 (SARS-CoV-2 Mpro) [µM] | fold more potent than disulfiram against Mpro (SARS-CoV-2 Mpro) | fold more potent than disulfiram against PLpro (SARS-CoV-2 PLpro; ratio of IC50 values vs disulfiram) [fold] | concentration range of antiviral activity (SARS-CoV-2; Huh7.5.1 cells, MOI 1.0, 48 h) [nM] | LD50 relative to LD50 of disulfiram [3] | inhibitory effect on cathepsin L (in words) (human cathepsin L) |
| --- | --- | --- | --- | --- | --- | --- | --- | --- | --- | --- | --- | --- | --- | --- | --- | --- |
| CCN(CC)C(=S)SSC(=S)N(CC)CC [Disulfiram, reference compound] | 24.1 | 1980 [29] mg/kg | 0.5 ± 0.2 | 2.2 ± 1.4 | 0.9 | – | – | – | – | – | – | – | – | – | – | – |
| CN1CCN(C(=S)SSC(=S)N2CCN(C)CC2)CC1 [RI171, di-4-Methylpiperazine-thiuram disulfide] | – | 100 [26] mg/kg | 1.9 ± 0.2 | – | 1.7 | 1.9 ± 0.1 | 3.2 ± 0.1 | 0.9 | 4.5 ± 0.7 | – | – | – | – | – | – | – |
| S=C(SSC(=S)N1CCCC1)N1CCCC1 [RI172, di-Pyrrolidine-thiuram disulfide] | – | – | < 0.08 | 0.2 | < 0.08 | – | – | – | – | 0.7 | 0.6 ± 0.1 | 2.5 fold | – | – | – | – |
| S=C(SSC(=S)N1CCOCC1)N1CCOCC1 [RI173, di-Morpholine-thiuram disulfide] | – | 3250 [31] mg/kg | 0.1 | – | 0.3 | 0.2 ± 0.1 | 0.6 ± 0.1 | 3 | 1.7 ± 0.6 | – | – | 2.5 fold | 19 | 100 to 200 | approximately 1.6 times | – |
| CN(C)C(=S)SSC(=S)N(C)C [RI174, tetra-Methyl-thiuram disulfide] | – | 1350 [33] mg/kg | < 0.08 | 16.9 ± 6.9 | < 0.08 | – | – | – | – | 0.6 | 2 ± 0.3 | – | – | – | – | – |
| CCOC(=S)SSC(=S)OCC [RI175, O,O-di-Ethyl dithiobis-thioformate] | – | 1200 [32] mg/kg | > 60 | 1.9 ± 0.6 | > 60 | – | – | – | – | 0.6 ± 0.1 | 0.3 ± 0.1 | about 5 fold | – | – | – | – |
| CN(C(=S)SSC(=S)N(C)c1ccccc1)c1ccccc1 [RI176, di-Methyl-di-Phenyl-thiuram disulfide] | – | – | – | – | – | – | – | – | > 50 | > 50 | > 50 | – | – | – | – | did not seem to have any inhibitory effect |
| CC(C)N(C(=S)SSC(=S)N(C(C)C)C(C)C)C(C)C [RI177, tetra-IsoPropyl-thiuram disulfide] | – | – | > 60 | – | > 60 | – | – | – | > 50 | > 50 | 3.8 ± 0.6 | – | – | – | – | did not seem to have any inhibitory effect |
